Values of other authors as cited in patent publication US7981605B2, “Epidermal growth factor receptor mutations” (Amgen Inc., priority 2005, dated 2011).

How the values were obtained:
[1] = system: A431 tumor xenografts; settings: athymic mice
[2] = system: NSCLC tumors with EGFr mutations; settings: deletions in amino acids 746-759 region, L858R, L861Q, G719C, G719S, R776C/L858R (Lynch, Paez, Pao 2004)

| Compound | formation of A431 xenografts [1] | sensitivity of NSCLC tumors with EGFr mutations [2] |
| --- | --- | --- |
| panitumumab: a human IgG2 monoclonal antibody against human EGFr; human anti-EGFr antibody (Amgen) | preventing the formation of human epidermoid carcinoma A431 xenografts |  |
| C#Cc1cccc(Nc2ncnc3cc(OCCOC)c(OCCOC)cc23)c1 [erlotinib, N-(3-ethynylphenyl)-6,7-bis(2-methoxyethoxy)-4-quinazolinamine] |  | display sensitivity |
